From patent US7056938B1, “Method for scavenging radicals with urocanic acid, derivatives and analogues” (Academisch Ziekenhuis Bij De Univ., priority 1999, dated 2006)
Where two headings read alike, the source gives them in different places. Marks after values point to notes of the source that are not given here.

Columns and labels:
[1] = deoxyribose (dR) degradation test, hydroxyl radical scavenging; type: biochemical; conditions: for SECOND ORDER RATE CONSTANT for reaction with hydroxyl radicals: mean of n slopes, sodium phosphate buffer pH 7.2
Description: Trans-UCA, cis-UCA, related imidazoles and non-imidazole compounds were tested with regard to their ability to compete with deoxyribose to scavenge hydroxyl radicals. On exposure to hydroxyl radicals deoxyribose is degraded into malondialdehyde, which reacts with thiobarbituric acid to form a pink chromogen. Powerful hydroxyl-radical scavengers will compete with deoxyribose, resulting in a reduced amount of malondialdehyde. Ten compounds, UCA, UCA analogues, alanine and uric acid (FIG. 1) were tested on their ability to scavenge hydroxyl radicals.
Method: the deoxyribose (dR) degradation test. The test was analogous to an earlier described method. Briefly, the reactions were performed in 5 mL screw cap glass tubes in a final volume of 1.0 mL sodium phosphate buffer (50 mM; pH 7.2), containing 3.0 mM 2 deoxy-D-ribose, 0.5 mM hydrogen peroxide and one of the test compounds at graded concentrations. The reaction was started by the addition of premixed disodium EDTA and ferrous iron solution (final concentrations 0.5 mM and 0.2 mM, respectively). The mixture was left for 15 minutes at room temperature. After addition of 1.0 mL 1% thiobarbituric acid in 50 mM NaOH and 0.75 mL 2.8% trichloroacetic acid, the tubes were heated for 20 minutes in a boiling water bath. The pink color was read at 532 nm and reciprocal absorption values were plotted against the concentration of the test compound after subtraction of appropriate blanks. A series of six duplicate determinations from test compound dilutions was employed to construct a graph slope for the calculation of a rate constant value. The mean, SD, number of rate constants and the percentage of inhibition of deoxyribose degradation, calculated for each test compound, are listed. Results. All second-order rate constants for reaction with hydroxyl radicals and, in addition, the percentage inhibition of deoxyribose degradation with equimolar concentrations (3 mM) of scavenger are summarized in Table 1. Trans-UCA and cis-UCA are substantially more powerful in scavenging hydroxyl radicals (8.0 and 7.1×10^3 M^−1,s^−1, respectively), than the other 4-(5-)-substituted imidazoles, including L-histidine (2.6×10^2 M^−1,s^−1). L-histidine, the precursor of UCA, was included as a known moderate scavenger with structural similarities to UCA. L-alanine was used as a known poor scavenger. Trans-FAA was tested as a non-imidazole acrylic acid derivative, having a furan ring instead.
FIG. 2. A determination of the second order rate constants of trans-UCA and cis-UCA with hydroxyl radicals. The rate constant was derived from the slope of the line (k=slope×kdR×[dR]×A0), where A0 is the absorbance, measured in the absence of hydroxyl radical scavenger. KdR was taken as 3.1×10^9 M^−1,s^−1, derived from pulse radiolysis studies, and [dR]=3 mM. […] The other scavengers were studied similarly.

rat = conditions: oral rat; cited from earlier work
[2] = test system: ear swelling response from BALB/c mice; assay: inhibition of contact hypersensitivity, ear swelling response; conditions: for inhibition of CHS (in words): as ammonium salts
[3] = Fenton oxidation of UCA (Fe2+ / hydrogen peroxide, HPLC); type: physicochemical
Description: Trans-UCA and cis-UCA were separated from each other and from several UCA oxidation products on a 4.6×250 mm Alltima C18 and Luna C18 reversed-phase column (Alitech, Deerfield, Ill. and Phenomenex, Torrence, Calif., resp.) with a flow of 0.8 mL/min, delivered by P-3500 HPLC-pumps (Pharmacia, Uppsala, Sweden). Samples of 20 to 200 μL were injected by a Promis II autosampler (Spark Holland, Emmen, The Netherlands) and chromatographic data were recorded on an SP 4270 integrator (Spectra Physics, San Jose, Calif.). Peak area data from samples were only processed under identical HPLC circumstances. A UV-detector (Applied Biosystems, model 759A, Foster City, Calif.) was set for 226 nm detection. Isocratic elution was performed with 10 mM ammonium formate buffer, containing 0.2–0.8 mM tetrabutylammonium(TBA)formate and 1% acetonitrile (pH 7.2). Collected fractions were acidified with formic acid up to a final concentration of 100 mM and passed through C18 could phase extraction columns (J T Baker, Deventer, The Netherlands) in order to remove TBA.
[…] In addition, two hydroxyl-radical-generating systems with copper ions (Cu^2+) were used, consisting of 50 μM Cu^2+ with either 500 μM hydrogen peroxide or 5 mM ascorbic acid.
In the next series of experiments we studied the Fenton oxidation of UCA, representing another natural oxidation process. Trans-UCA and cis-UCA isomers were Fenton oxidized by ferorus ions (Fe^2+) and hydrogen peroxide at physiological concentrations. The initial hydrogen peroxide concentration was 500 μM and the ferrous ion concentration was varied from 0 to 500 μM. In all Fenton oxidation reactions the degree of UCA-isomer breakdown was calculated from their reduced peak areas. The oxidation reaction must have been completed within 2 minutes for all reaction conditions, because no further breakdown was observed after prolonged incubation.
When the Fenton reaction was performed in water instead of phosphate buffer, the oxidative breakdown of trans-UCA was enhanced irrespective of the UCA concentration. The turbidity seen in reactions performed in phoshate buffer (10 mM) with high Fe^2+ concentration (>100 μM) was probably due to the formation of insoluble, iron phosphate, thereby reducing the free availability of Fe^2+. Table 3 summarizes the difference between water and phosphate medium for trans-UCA at an initial concentration of 40 μM with respect to its breakdown and the formation of Fenton-oxidation products. Similarly to the photo-oxidation experiments, the peak areas of the 8 major oxidation products were summed. […] A close resemblance was observed between the chromatographic patterns of UCA Fenton oxidation products (not shown) and those of UCA photo-oxidation products. Three of them has been identified (vide infra).
In another series of experiments we studied the Fenton oxidation of UCA, representing another natural oxidation process. The initial hydrogen peroxide concentration was 500 μM in all experiments and the ferrous ion concentration was varied from 0 to 400 μM. Four sets of conditions were compared: […] in phosphate buffer pH 7.2, 2. Fe^2+ in phosphate buffer plus EDTA, 3. Fe^2− without buffer with a initial pH of 5.5–5.3 and 4. Cu^2+ in phosphate buffer plus ascorbate. The degree of breakdown was similar for both UCA isomers.

[4] = [SCAVENGER] = [DEOXYRIBOSE] = 3 Mm

Structure (SMILES) | hydroxyl radical scavenging ability (in words) [1] | SECOND ORDER RATE CONSTANT for reaction with hydroxyl radicals [1] | INHIBITION of DEOXYRIBOSE DEGRADATION [1, 4] [%] | other results
Cc1ncc[nH]1 [2-Methylimidazole, 2-methylimidazole] | stronger hydroxyl radical scavengers | 1.17e+10 M⁻¹ s⁻¹ | – | INHIBITION of DEOXYRIBOSE DEGRADATION ([1]; 15 min, 3 mM, pH 7.2): 76%; LD50 (rat): 1500 mg/kg
O=C(O)CCc1c[nH]cn1 [Dihydrourocanic acid, 3-(imidazol-4-yl)-propionic acid] | moderate scavenging ability | 3.7e+09 M⁻¹ s⁻¹ | – | INHIBITION of DEOXYRIBOSE DEGRADATION ([1]; 15 min, 3 mM, pH 7.2): 34%
O=CC(=O)O [Glyoxylic acid, glyoxylic acid] | – | – | – | inhibition of CHS (in words) [2]: did not exhibit significant inhibition
O=Cc1c[nH]cn1 [ImCHO, imidazole-4-carboxaldehyde] | – | – | – | yield of ImCOOH from ImCHO as starting material ([3]; after Fenton- or photooxidation): ~100%
O=C(O)Cc1c[nH]cn1 [Imidazole-4acetic acid, imidazole-4-acetic acid] | moderate scavenging ability | 2.2e+09 M⁻¹ s⁻¹ | 30 | –
C[C@H](N)C(=O)O [L-Alanine, L-alanine] | – | 1e+08 M⁻¹ s⁻¹ | 2 | –
N[C@@H](Cc1c[nH]cn1)C(=O)O [L-Histidine, L-histidine] | – | 2.6^(c) × 10^9 M^−1 · s^−1 | 34 | rate constant for scavenging hydroxyl radicals [1]: 2.6e+09 M⁻¹ s⁻¹
O=c1[nH]c(=O)c2[nH]c(=O)[nH]c2[nH]1 [Uric acid, uric acid] | – | 2.78e+10 M⁻¹ s⁻¹ | – | INHIBITION of DEOXYRIBOSE DEGRADATION ([1]; 15 min, 3 mM, pH 7.2): 91%
O=C(O)/C=C\c1c[nH]cn1 [cis-Urocanic acid] | – | 7.1e+09 M⁻¹ s⁻¹ | 64 | broken down by the unbuffered Fenton oxidation system ([3]; initial UCA concentration 250 μM, unbuffered): 75%; second order rate constant in the particular set of FIG. 2 ([1]; single set of FIG. 2, kdR 3.1×10^9, [dR]=3 mM): 7.33 ×10^9 M^−1,s^−1; ear swelling ([2]; 1 g/l, maximum normalized to 100%): 31%
c1c[nH]cn1 [imidazole] | stronger scavengers than the UCA isomers | – | – | –
O=C(O)C(=O)O [oxalic acid] | – | – | – | inhibition of CHS (in words) [2]: did not exhibit significant inhibition
O=C(O)/C=C/c1ccco1 [trans-2-Furylacylic acid, trans-2-furylacrylic acid] | very poor scavenging ability | <1e+08 M⁻¹ s⁻¹ | – | INHIBITION of DEOXYRIBOSE DEGRADATION [1]: <2%
